Measured values as given in US20250009755A1, “COMPOSITIONS AND METHODS FOR THE TREATMENT OF OCULAR DISEASES AND INJURIES” (Ohio State Innovation Foundation, priority 2021, published 2025).

Assays:
[1] = cited from earlier work
VEGF-A = details: wet AMD patients; cited from earlier work
C5 = biological target: T1, C5 (Homo sapiens, UniProt P01031); details: intravitreal injections, Phase 2/3 GATHER1; cited from earlier work
T1 construct: host or cells: endogenous C5 of study patients

HUVECs = test: H2O2-induced tubule formation in HUVECs co-cultured with ARPE-19 cells (Calcein AM); assay type: cell-based, human; details: 200 μM H2O2; 10 μg/mL NPs or 5 μg/mL bevacizumab; vs positive control
Procedure: Under oxidative stress induced by 200 μM H2O2, ARPE-19 cells were co-cultured with human umbilical vein endothelial cells (HUVECs) to investigate the influence of H2O2 and drug-loaded PDA NPs on the development of the three-dimensional capillary structure. Exposure to H2O2 induced secretion of VEGF and tubule formation. Cells were then incubated with 5 μg/mL native bevacizumab control or 10 μg/mL NPs with and without anti-VEGF. […] The reaction of PDA NPs with H2O2 also simultaneously degraded (FIG. 6B) and triggered drug release (FIG. 7), favorable for spatiotemporal control of release at disease sites.

C3 = biological target: T2, C3 (Homo sapiens, UniProt P01024); details: intravitreal injection, Phase 2 FILLY; cited from earlier work
T2 construct: host or cells: endogenous C3 of study patients
T2 sequence (P01024 23-667 limits assumed): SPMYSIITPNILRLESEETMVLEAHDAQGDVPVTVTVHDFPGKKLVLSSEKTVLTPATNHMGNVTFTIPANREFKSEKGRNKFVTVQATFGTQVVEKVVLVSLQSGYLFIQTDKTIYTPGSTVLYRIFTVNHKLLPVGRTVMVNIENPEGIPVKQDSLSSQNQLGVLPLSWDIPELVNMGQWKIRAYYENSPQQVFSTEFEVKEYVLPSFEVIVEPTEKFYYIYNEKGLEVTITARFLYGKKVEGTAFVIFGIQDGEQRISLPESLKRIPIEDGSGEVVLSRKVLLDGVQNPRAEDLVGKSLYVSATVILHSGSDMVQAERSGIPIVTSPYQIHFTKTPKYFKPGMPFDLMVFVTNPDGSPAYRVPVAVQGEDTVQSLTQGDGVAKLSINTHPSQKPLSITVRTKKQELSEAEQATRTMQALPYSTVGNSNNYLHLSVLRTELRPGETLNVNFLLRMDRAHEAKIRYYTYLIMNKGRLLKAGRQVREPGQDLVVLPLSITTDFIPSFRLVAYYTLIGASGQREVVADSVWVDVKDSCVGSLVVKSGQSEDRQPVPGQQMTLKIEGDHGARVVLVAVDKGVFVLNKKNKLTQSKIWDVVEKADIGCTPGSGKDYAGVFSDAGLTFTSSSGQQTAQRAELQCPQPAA
T2 sequence (P01024 672-1663 partner limits assumed): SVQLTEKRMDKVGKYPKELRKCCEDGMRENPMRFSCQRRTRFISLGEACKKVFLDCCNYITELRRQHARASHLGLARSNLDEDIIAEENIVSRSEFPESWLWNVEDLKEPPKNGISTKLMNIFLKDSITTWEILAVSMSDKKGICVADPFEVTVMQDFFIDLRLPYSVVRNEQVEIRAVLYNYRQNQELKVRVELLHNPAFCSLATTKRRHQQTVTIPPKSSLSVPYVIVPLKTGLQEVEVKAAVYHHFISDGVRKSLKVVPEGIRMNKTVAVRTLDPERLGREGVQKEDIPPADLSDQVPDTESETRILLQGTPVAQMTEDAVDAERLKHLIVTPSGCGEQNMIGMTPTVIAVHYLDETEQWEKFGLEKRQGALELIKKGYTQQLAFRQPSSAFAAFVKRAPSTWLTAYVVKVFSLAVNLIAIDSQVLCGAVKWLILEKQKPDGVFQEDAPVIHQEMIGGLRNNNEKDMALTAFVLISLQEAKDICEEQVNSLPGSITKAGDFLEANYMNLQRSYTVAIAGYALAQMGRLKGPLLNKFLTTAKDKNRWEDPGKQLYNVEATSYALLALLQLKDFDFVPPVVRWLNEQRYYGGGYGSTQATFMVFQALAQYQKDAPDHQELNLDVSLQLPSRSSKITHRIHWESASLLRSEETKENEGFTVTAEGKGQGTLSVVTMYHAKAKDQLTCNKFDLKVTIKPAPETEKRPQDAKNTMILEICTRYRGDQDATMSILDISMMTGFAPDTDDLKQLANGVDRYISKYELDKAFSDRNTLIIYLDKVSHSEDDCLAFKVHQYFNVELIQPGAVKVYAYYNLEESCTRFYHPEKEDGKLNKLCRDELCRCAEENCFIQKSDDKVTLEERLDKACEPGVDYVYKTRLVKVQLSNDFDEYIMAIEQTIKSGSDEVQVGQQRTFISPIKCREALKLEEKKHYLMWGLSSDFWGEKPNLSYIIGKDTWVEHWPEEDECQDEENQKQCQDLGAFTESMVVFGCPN

VEGF-A, sequence (P15692 207-311 limits assumed): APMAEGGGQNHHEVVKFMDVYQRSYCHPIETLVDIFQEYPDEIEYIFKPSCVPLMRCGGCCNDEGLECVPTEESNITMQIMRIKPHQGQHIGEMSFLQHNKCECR
T1 sequence (P01031 19-673 limits assumed): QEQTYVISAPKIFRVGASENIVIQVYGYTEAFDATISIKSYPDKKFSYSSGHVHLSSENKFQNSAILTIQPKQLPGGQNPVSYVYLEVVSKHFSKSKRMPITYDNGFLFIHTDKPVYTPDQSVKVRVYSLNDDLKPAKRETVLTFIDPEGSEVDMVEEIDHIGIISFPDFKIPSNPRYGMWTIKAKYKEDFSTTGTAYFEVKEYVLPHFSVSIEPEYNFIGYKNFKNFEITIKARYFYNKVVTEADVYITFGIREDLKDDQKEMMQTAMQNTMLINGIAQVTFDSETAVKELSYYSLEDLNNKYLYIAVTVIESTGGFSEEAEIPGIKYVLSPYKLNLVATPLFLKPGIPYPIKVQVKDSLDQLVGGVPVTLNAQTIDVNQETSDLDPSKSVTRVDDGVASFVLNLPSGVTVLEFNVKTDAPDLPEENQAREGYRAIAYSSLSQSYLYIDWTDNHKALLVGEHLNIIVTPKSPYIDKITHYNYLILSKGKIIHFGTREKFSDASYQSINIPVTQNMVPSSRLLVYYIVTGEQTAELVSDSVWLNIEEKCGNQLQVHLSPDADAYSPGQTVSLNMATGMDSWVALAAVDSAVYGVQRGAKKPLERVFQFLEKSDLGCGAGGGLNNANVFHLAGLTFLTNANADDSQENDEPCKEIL
T1 sequence (P01031 678-1676 limits assumed): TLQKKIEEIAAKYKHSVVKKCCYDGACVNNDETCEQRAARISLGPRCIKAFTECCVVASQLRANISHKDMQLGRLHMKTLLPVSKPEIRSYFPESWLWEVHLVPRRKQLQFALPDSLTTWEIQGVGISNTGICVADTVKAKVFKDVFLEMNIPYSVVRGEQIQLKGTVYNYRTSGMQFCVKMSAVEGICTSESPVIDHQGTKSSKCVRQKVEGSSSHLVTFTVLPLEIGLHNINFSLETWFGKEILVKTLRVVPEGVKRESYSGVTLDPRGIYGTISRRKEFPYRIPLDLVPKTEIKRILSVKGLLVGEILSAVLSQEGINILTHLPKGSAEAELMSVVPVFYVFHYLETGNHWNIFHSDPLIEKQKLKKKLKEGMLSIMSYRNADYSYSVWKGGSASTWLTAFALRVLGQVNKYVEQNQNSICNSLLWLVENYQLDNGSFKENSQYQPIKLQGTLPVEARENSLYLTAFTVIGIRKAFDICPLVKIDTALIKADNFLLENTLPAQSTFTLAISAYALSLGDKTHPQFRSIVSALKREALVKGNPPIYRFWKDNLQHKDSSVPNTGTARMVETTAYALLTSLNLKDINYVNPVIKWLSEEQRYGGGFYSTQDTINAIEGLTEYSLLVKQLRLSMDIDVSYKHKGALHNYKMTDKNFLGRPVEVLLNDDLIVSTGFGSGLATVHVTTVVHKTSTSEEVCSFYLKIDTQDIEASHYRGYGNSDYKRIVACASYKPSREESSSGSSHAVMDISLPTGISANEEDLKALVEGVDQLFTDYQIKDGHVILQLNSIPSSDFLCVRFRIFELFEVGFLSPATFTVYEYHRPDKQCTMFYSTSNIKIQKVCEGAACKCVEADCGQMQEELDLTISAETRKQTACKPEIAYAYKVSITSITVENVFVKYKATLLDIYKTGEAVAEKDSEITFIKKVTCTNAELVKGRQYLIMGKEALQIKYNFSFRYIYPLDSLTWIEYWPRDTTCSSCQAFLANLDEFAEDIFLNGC

## C=CC1=C(C)c2cc3[n-]c(cc4[n-]c(cc5nc(cc1n2)C(C)=C5C=C)c(C)c4CCC(=O)O)c(CCC(=O)O)c3C.[Fe+2] [Heme]
[1]
  aqueous solubility: insoluble in aqueous solution

## RAN: monoclonal antibody fragment with strong affinity to VEGF-A
VEGF-A
  patients with improved vision: 29%-40%

## avacincaptad pegol
C5
  GA growth rate: significantly reduced GA growth rate

## bevacizumab: a monoclonal antibody that inhibits VEGF-A
HUVECs
  tubule formation in HUVECs: significant decrease

## pegcetacoplan
C3
  GA growth rate: significantly reduced GA growth rate
